Measurements as given in US20060167057A1, “Compounds for the treatment of CNS and amyloid associated diseases” (priority 2004, published 2006).

target: T1, L1 transport system (large neutral amino acid carrier, L1-system carrier) (Rattus norvegicus, UniProt Q63016); assay: Competitive binding assay to the brain L1 transport system (L-[U-14C]phenylalanine on rat primary cerebrovascular endothelial cells); conditions: 10^−4 M
T1 construct: functionality of their endogenous transporters such as the L1-system carrier; endogenous in cells; host or cells: rat primary cerebrovascular (brain microcapillary) endothelial cells, RBEC
Procedure, shortened: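 Cells were primary cerebral microvascular endothelial cells from cortices of 24-day-old rats, isolated by collagenase/DNAse digestion, dextran separation and mesh filtration.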

T1 sequence (Q63016 whole entry): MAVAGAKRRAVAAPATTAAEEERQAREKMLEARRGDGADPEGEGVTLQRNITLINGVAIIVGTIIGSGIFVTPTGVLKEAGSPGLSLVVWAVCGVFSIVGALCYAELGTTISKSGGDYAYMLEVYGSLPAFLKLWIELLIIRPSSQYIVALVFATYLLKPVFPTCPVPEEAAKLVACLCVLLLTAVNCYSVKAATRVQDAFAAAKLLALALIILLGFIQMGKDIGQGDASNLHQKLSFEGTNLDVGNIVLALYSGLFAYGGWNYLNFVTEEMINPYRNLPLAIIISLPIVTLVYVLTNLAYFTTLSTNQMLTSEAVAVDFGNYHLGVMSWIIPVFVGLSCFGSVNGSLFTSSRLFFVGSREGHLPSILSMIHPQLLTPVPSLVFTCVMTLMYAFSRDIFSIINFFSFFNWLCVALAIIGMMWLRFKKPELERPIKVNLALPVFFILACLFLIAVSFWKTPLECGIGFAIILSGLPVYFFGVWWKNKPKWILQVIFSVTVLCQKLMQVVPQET
T1 sequence (Q794F9 whole entry partner): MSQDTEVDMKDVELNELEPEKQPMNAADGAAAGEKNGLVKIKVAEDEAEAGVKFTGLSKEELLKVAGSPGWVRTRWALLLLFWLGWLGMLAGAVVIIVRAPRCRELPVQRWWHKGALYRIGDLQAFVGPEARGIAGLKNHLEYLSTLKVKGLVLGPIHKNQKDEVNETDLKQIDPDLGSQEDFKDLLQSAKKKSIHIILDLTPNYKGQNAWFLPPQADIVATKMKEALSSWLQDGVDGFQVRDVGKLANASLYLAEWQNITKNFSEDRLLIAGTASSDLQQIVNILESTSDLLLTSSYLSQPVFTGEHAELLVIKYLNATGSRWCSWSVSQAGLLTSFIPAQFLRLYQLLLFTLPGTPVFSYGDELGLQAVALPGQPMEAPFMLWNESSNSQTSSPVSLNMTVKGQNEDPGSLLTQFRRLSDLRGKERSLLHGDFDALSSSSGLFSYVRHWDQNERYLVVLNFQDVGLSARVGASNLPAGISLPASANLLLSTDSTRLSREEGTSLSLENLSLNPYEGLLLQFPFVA

SMILES	Comparison with the Binding of Phenylalanine
NC(Cc1ccc(-c2ccc(CSc3nc(-c4ccccc4)c(-c4ccccc4)[nH]3)cc2)cc1)C(=O)O (stereo not drawn) [Compound 149]	3 (X > 20 Rank 3)
Cc1ccnc(SCc2ccc(-c3ccc(CC(N)C(=O)O)cc3)cc2)n1 (stereo not drawn) [Compound 151]	0 (X < 0 Rank 0)
NC(Cc1ccc(-c2ccc(CSc3nnnn3CC(=O)O)cc2)cc1)C(=O)O (stereo not drawn) [Compound 153]	0 (X < 0 Rank 0)
NC(Cc1cccc(CSc2ncccn2)n1)C(=O)O (stereo not drawn) [Compound 154]	1 (0 < X < 10 Rank 1)
NC(Cc1ccc(-c2ccc(CSc3nc4ccccc4c(=O)[nH]3)cc2)cc1)C(=O)O (stereo not drawn) [Compound 155]	0 (X < 0 Rank 0)
Cn1cnnc1SCc1cccc(CC(N)C(=O)O)n1 (stereo not drawn) [Compound 156]	1 (0 < X < 10 Rank 1)
NC(Cc1cccc(CN2CCN(c3ncccn3)CC2)n1)C(=O)O (stereo not drawn) [Compound 158]	0 (X < 0 Rank 0)
NC(Cc1ccc(-c2ccc(CSc3ccc4ccccc4n3)cc2)cc1)C(=O)O (stereo not drawn) [Compound 159]	0 (X < 0 Rank 0)
NC(Cc1cccc(CN2CC=CCC2)n1)C(=O)O (stereo not drawn) [Compound 160]	0 (X < 0 Rank 0)

same assay, conditions: 10^−5 M

SMILES	Comparison with the Binding of Phenylalanine
NC(Cc1ccc(-c2ccc(CSc3nc(-c4ccccc4)c(-c4ccccc4)[nH]3)cc2)cc1)C(=O)O (stereo not drawn) [Compound 149]	3 (X > 20 Rank 3)
Cc1ccnc(SCc2ccc(-c3ccc(CC(N)C(=O)O)cc3)cc2)n1 (stereo not drawn) [Compound 151]	0 (X < 0 Rank 0)
NC(Cc1ccc(-c2ccc(CSc3nnnn3CC(=O)O)cc2)cc1)C(=O)O (stereo not drawn) [Compound 153]	0 (X < 0 Rank 0)
NC(Cc1cccc(CSc2ncccn2)n1)C(=O)O (stereo not drawn) [Compound 154]	0 (X < 0 Rank 0)
NC(Cc1ccc(-c2ccc(CSc3nc4ccccc4c(=O)[nH]3)cc2)cc1)C(=O)O (stereo not drawn) [Compound 155]	0 (X < 0 Rank 0)
Cn1cnnc1SCc1cccc(CC(N)C(=O)O)n1 (stereo not drawn) [Compound 156]	1 (0 < X < 10 Rank 1)
NC(Cc1cccc(CN2CCN(c3ncccn3)CC2)n1)C(=O)O (stereo not drawn) [Compound 158]	0 (X < 0 Rank 0)
NC(Cc1ccc(-c2ccc(CSc3ccc4ccccc4n3)cc2)cc1)C(=O)O (stereo not drawn) [Compound 159]	0 (X < 0 Rank 0)
NC(Cc1cccc(CN2CC=CCC2)n1)C(=O)O (stereo not drawn) [Compound 160]	0 (X < 0 Rank 0)

same assay, conditions: 10^−6 M

SMILES	Comparison with the Binding of Phenylalanine
NC(Cc1ccc(-c2ccc(CSc3nc(-c4ccccc4)c(-c4ccccc4)[nH]3)cc2)cc1)C(=O)O (stereo not drawn) [Compound 149]	2 (10 < X < 20 Rank 2)
Cc1ccnc(SCc2ccc(-c3ccc(CC(N)C(=O)O)cc3)cc2)n1 (stereo not drawn) [Compound 151]	2 (10 < X < 20 Rank 2)
NC(Cc1ccc(-c2ccc(CSc3nnnn3CC(=O)O)cc2)cc1)C(=O)O (stereo not drawn) [Compound 153]	2 (10 < X < 20 Rank 2)
NC(Cc1cccc(CSc2ncccn2)n1)C(=O)O (stereo not drawn) [Compound 154]	0 (X < 0 Rank 0)
NC(Cc1ccc(-c2ccc(CSc3nc4ccccc4c(=O)[nH]3)cc2)cc1)C(=O)O (stereo not drawn) [Compound 155]	2 (10 < X < 20 Rank 2)
Cn1cnnc1SCc1cccc(CC(N)C(=O)O)n1 (stereo not drawn) [Compound 156]	2 (10 < X < 20 Rank 2)
NC(Cc1cccc(CN2CCN(c3ncccn3)CC2)n1)C(=O)O (stereo not drawn) [Compound 158]	1 (0 < X < 10 Rank 1)
NC(Cc1ccc(-c2ccc(CSc3ccc4ccccc4n3)cc2)cc1)C(=O)O (stereo not drawn) [Compound 159]	1 (0 < X < 10 Rank 1)
NC(Cc1cccc(CN2CC=CCC2)n1)C(=O)O (stereo not drawn) [Compound 160]	1 (0 < X < 10 Rank 1)

same assay, conditions: compounds of Example 4; 10^−6, 10^−5 and 10^−4; Δ versus phenylalanine

SMILES	Status of Binding
COc1ccc(-n2nnnc2SCc2cccc(C[C@H](N)C(=O)O)c2)cc1 [drawing 467]	3 (3: Δ > 10%, significantly higher binding affinity than phenylalanine)
N[C@@H](Cc1cccc(CSc2nnnn2-c2ccccc2)c1)C(=O)O [drawing 468]	3 (3: Δ > 10%, significantly higher binding affinity than phenylalanine)
N[C@@H](Cc1cccc(CSc2nc3ccccc3[nH]2)c1)C(=O)O [drawing 469]	1 (1: −10 > Δ > −50%, lower binding affinity than phenylalanine)
N[C@@H](Cc1cccc(CSc2nnc(-c3ccccc3)[nH]2)c1)C(=O)O [drawing 470]	2 (2: 10% ≧ Δ ≧ −10% similar binding affinity to phenylalanine)
N[C@@H](Cc1cccc(CSc2nc3ccccc3[nH]2)n1)C(=O)O [drawing 471]	1 (1: −10 > Δ > −50%, lower binding affinity than phenylalanine)
N[C@@H](Cc1cccc(CSc2ncnc3[nH]ncc23)n1)C(=O)O [drawing 472]	0 (0: Δ ≦ −50%, no binding or very low binding affinity)
N[C@@H](Cc1cccc(CS(=O)(=O)c2nc3ccccc3[nH]2)n1)C(=O)O [drawing 473]	0 (0: Δ ≦ −50%, no binding or very low binding affinity)
N[C@@H](Cc1cccc(CSc2nccc(O)n2)c1)C(=O)O [drawing 474]	1 (1: −10 > Δ > −50%, lower binding affinity than phenylalanine)
N[C@@H](Cc1cccc(C[S+]([O-])c2nnnn2-c2ccccc2)c1)C(=O)O (stereo partly drawn) [drawing 475]	3 (3: Δ > 10%, significantly higher binding affinity than phenylalanine)
N[C@@H](Cc1cccc(CSc2nccc(C(F)(F)F)n2)n1)C(=O)O [drawing 476]	1 (1: −10 > Δ > −50%, lower binding affinity than phenylalanine)
N[C@@H](Cc1cccc(CSc2nc3ccc(Cl)cc3s2)n1)C(=O)O [drawing 477]	1 (1: −10 > Δ > −50%, lower binding affinity than phenylalanine)
N[C@@H](Cc1cccc(CS(=O)(=O)c2nc3ccccc3[nH]2)c1)C(=O)O [drawing 478]	2 (2: 10% ≧ Δ ≧ −10% similar binding affinity to phenylalanine)
N[C@@H](Cc1cccc(C[S+]([O-])c2nnnn2-c2ccccc2)n1)C(=O)O (stereo partly drawn) [drawing 479]	1 (1: −10 > Δ > −50%, lower binding affinity than phenylalanine)
N[C@@H](Cc1cccc(CSc2nnnn2-c2ccc(O)cc2)c1)C(=O)O [drawing 480]	3 (3: Δ > 10%, significantly higher binding affinity than phenylalanine)
COc1ccc(-n2nnnc2[S+]([O-])Cc2cccc(C[C@H](N)C(=O)O)c2)cc1 (stereo partly drawn) [drawing 481]	3 (3: Δ > 10%, significantly higher binding affinity than phenylalanine)
N[C@@H](Cc1cccc(C[S+]([O-])c2nnc(-c3ccccc3)[nH]2)c1)C(=O)O (stereo partly drawn) [drawing 482]	1 (1: −10 > Δ > −50%, lower binding affinity than phenylalanine)
N[C@@H](Cc1cccc(CS(=O)(=O)c2ncc[nH]2)c1)C(=O)O [drawing 483]	1 (1: −10 > Δ > −50%, lower binding affinity than phenylalanine)
N[C@@H](Cc1cccc(CSc2nnc(-c3ccncc3)o2)c1)C(=O)O [drawing 484]	2 (2: 10% ≧ Δ ≧ −10% similar binding affinity to phenylalanine)
CN(C)CCn1nnnc1SCc1cccc(C[C@H](N)C(=O)O)c1 [drawing 485]	1 (1: −10 > Δ > −50%, lower binding affinity than phenylalanine)
N[C@@H](Cc1cccc(CSc2nnc(-c3ccncc3)[nH]2)c1)C(=O)O [drawing 486]	2 (2: 10% ≧ Δ ≧ −10% similar binding affinity to phenylalanine)

target: T2, IAPP (Homo sapiens, UniProt P10997); assay: Electrospray MS assay for binding to IAPP; design: key to MS Results (IAPP binding), Water: 0 = None; conditions: 100 μM compound, 20 μM IAPP, pH 7.4, 20% ethanol in water
T2 construct: which is a 37 amino acid peptide, derived from a larger precursor peptide, called pro-IAPP
T2 sequence (P10997 34-70 limits assumed): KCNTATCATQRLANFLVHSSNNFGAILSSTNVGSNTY
Text: The ability of a therapeutic compound of the invention to inhibit an interaction between an amyloidogenic protein and a glycoprotein or proteoglycan constituent of a basement membrane can be assessed by an in vitro binding assay, such as that described in U.S. Pat. No. 5,164,295, the contents of which are hereby incorporated by reference. Alternatively, the ability of a compound to bind to an amyloidogenic protein or to inhibit the binding of a basement membrane constituent (e.g. HSPG) to an amyloidogenic protein (e.g. Aβ) can be measured using a mass spectrometry assay where soluble protein, e.g Aβ, IAPP, β2M is incubated with the compound. A compound which binds to, e.g Aβ, will induce a change in the mass spectrum of the protein. Exemplary protocols for a mass spectrometry assay employing Aβ and IAPP can be found in the Examples, the results of which are provided in Table 5. The protocol can readily be modified to adjust the sensitivity of the data, e.g., by adjusting the amount of protein and/or compound employed. Thus, e.g., binding might be detected for test compounds noted as not having detectable binding employing less sensitive test protocols.
The binding ability between the compounds synthesized in Example 4 and IAPP in an aqueous solution is tested. The binding ability is attributed semi-quantitatively from the intensities of peptide-compound complex peaks observed in the Electrospray Mass Spectrum.
In the MS assay for IAPP, samples are prepared as both aqueous solutions and as 20% ethanol in water solutions, including 100 μM of an exemplary compound as prepared in. Example 4 and 20 μM of solubilized IAPP. The stock solution contains 30 μM IAPP and the initial pH is 3.8. Generally, IAPP precipitates out of solution at concentrations higher than 50 μM and pH higher than ˜6 as soon as a test compound is mixed with the peptide. The pH value of each sample, therefore, is adjusted to 7.4 ([…]) by addition of 0.1% aqueous sodium hydroxide. The solutions aer then analyzed by electrospray ionization mass spectrometry using a Waters ZQ 4000 mass spectrometer. Samples are introduced by direct infusion at a flow-rate of 25 μL/min within 2 hr. after sample preparation. The source temperature is kept at 70° C. and the cone voltage is 20 V for all the analysis. Data are processed using Masslynx 3.5 software. IAPP (MW 3903.4) alone at 20 μM is analyzed at pH 7.32 as a control. Sodium clusters, which are typical of this system at +3 and +4 at m/z 1301.9 and 976.7 regions, may be observed. In Table 8, a blank box means that a value was not determined for that compound in that assay.

SMILES	MS Results (IAPP binding), 20% Ethanol
COc1ccc(-n2nnnc2SCc2cccc(C[C@H](N)C(=O)O)c2)cc1 [drawing 508]	+++ (+++ = Strong (50 and higher % of free peptide))
N[C@@H](Cc1cccc(CSc2nnnn2-c2ccccc2)c1)C(=O)O [drawing 509]	++ (++ = Moderate (30-50% of free peptide))
N[C@@H](Cc1cccc(CSc2nc3ccccc3[nH]2)c1)C(=O)O [drawing 510]	+ (+ = Weak (15-30% of free peptide))

same assay, conditions: 100 μM compound, 20 μM IAPP, pH 7.4, aqueous solution

SMILES	MS Results (IAPP binding), Water
N[C@@H](Cc1cccc(CSc2ncc[nH]2)c1)C(=O)O	0
N[C@@H](Cc1cccc(CSc2nnnn2-c2ccccc2)c1)C(=O)O [drawing 509]	+ (+ = Weak (15-30% of free peptide))
N[C@@H](Cc1cccc(CSc2nc3ccccc3[nH]2)c1)C(=O)O [drawing 510]	0
N[C@@H](Cc1cccc(CSc2nnc(-c3ccccc3)[nH]2)c1)C(=O)O [drawing 511]	+ (+ = Weak (15-30% of free peptide))
N[C@@H](Cc1cccc(CSc2nc3ccccc3[nH]2)n1)C(=O)O [drawing 512]	0
N[C@@H](Cc1cccc(CSc2ncnc3[nH]ncc23)n1)C(=O)O [drawing 513]	0
N[C@@H](Cc1cccc(CS(=O)(=O)c2nc3ccccc3[nH]2)n1)C(=O)O [drawing 514]	0
